From the supplement of paper PMC10733146

Assays:
Experiment in all cases: viability relative to DMSO control (fraction); higher = less drug effect (more viable cells)
Settings in all cases: 48 h
[1] = system: primary DLBCL patient cells (S082)
Outline: (§1)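 In 384-well plates with compounds pre-plated at five concentrations (one well per concentration), primary mononuclear tumour cells were plated at 4 × 10^4 cells per well. The cells came from blood or bone marrow by Ficoll isolation or from processed lymph node, and were used fresh or cryopreserved. Culture ran for 48 h at 37 °C and 5% CO2 in RPMI-1640 containing penicillin/streptomycin, L-glutamine and human serum. Viability was read as CellTiter-Glo luminescence, normalised to the median of 16 inner DMSO wells.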

[2] = system: primary AML patient cells (S017)
Outline: as §1

[3] = system: primary AML patient cells (S091)
Outline: as §1

[4] = system: primary AML patient cells (S060)
Outline: as §1

[5] = system: primary T-PLL patient cells (S008)
Outline: as §1

[6] = system: primary AML patient cells (S009)
Outline: as §1

[7] = system: primary AML patient cells (S072)
Outline: as §1

[8] = system: primary AML patient cells (S002)
Outline: as §1

[9] = system: primary B-PLL patient cells (S016)
Outline: as §1

[10] = system: primary AML patient cells (S089)
Outline: as §1

[11] = system: primary MCL patient cells (S068)
Outline: as §1

[12] = system: primary MCL patient cells (S053)
Outline: as §1

[13] = system: primary AML patient cells (S081)
Outline: as §1

[14] = system: primary AML patient cells (S071)
Outline: as §1

[15] = system: primary AML patient cells (S021)
Outline: as §1

[16] = system: primary AML patient cells (S055)
Outline: as §1

[17] = system: primary AML patient cells (S037)
Outline: as §1

[18] = system: primary CLL patient cells (S043)
Outline: as §1

[19] = system: primary BL patient cells (S005)
Outline: as §1

Nc1cccc2c1CN(C1CCC(=O)NC1=O)C2=O (stereo not given) [Lenalidomide]
viability ([1]; 0.008 µM): 1.1 | viability ([1]; 0.04 µM): 1.07 | viability ([1]; 0.2 µM): 1.08 | viability ([1]; 1 µM): 1.14 | viability ([1]; 5 µM): 1.1 | viability ([2]; 0.008 µM): 1.03 | viability ([2]; 0.04 µM): 0.976 | viability ([2]; 0.2 µM): 0.982 | viability ([2]; 1 µM): 0.963 | viability ([2]; 5 µM): 0.986 | viability ([3]; 0.008 µM): 1.09 | viability ([3]; 0.04 µM): 1.1 | viability ([3]; 0.2 µM): 1.11 | viability ([3]; 1 µM): 0.943 | viability ([3]; 5 µM): 1.1 | viability ([4]; 0.008 µM): 1.02 | viability ([4]; 0.04 µM): 0.973 | viability ([4]; 0.2 µM): 0.992 | viability ([4]; 1 µM): 1 | viability ([4]; 5 µM): 1.01 | viability ([5]; 0.008 µM): 0.988 | viability ([5]; 0.04 µM): 0.995 | viability ([5]; 0.2 µM): 0.907 | viability ([5]; 1 µM): 0.836 | viability ([5]; 5 µM): 0.798 | viability ([6]; 0.008 µM): 0.927 | viability ([6]; 0.04 µM): 0.871 | viability ([6]; 0.2 µM): 0.817 | viability ([6]; 1 µM): 0.723 | viability ([6]; 5 µM): 0.786 | viability ([7]; 0.008 µM): 1.12 | viability ([7]; 0.04 µM): 1.14 | viability ([7]; 0.2 µM): 1.1 | viability ([7]; 1 µM): 1.13 | viability ([7]; 5 µM): 1.15 | viability ([8]; 0.008 µM): 0.904 | viability ([8]; 0.04 µM): 0.949 | viability ([8]; 0.2 µM): 0.757 | viability ([8]; 1 µM): 0.698 | viability ([8]; 5 µM): 0.713 | viability ([9]; 0.008 µM): 1.1 | viability ([9]; 0.04 µM): 1.05 | viability ([9]; 0.2 µM): 0.883 | viability ([9]; 1 µM): 0.819 | viability ([9]; 5 µM): 0.719 | viability ([10]; 0.008 µM): 0.916 | viability ([10]; 0.04 µM): 0.727 | viability ([10]; 0.2 µM): 0.724 | viability ([10]; 1 µM): 0.559 | viability ([10]; 5 µM): 0.737 | viability ([11]; 0.008 µM): 1.02 | viability ([11]; 0.04 µM): 0.803 | viability ([11]; 0.2 µM): 0.832 | viability ([11]; 1 µM): 0.764 | viability ([11]; 5 µM): 0.736 | viability ([12]; 0.008 µM): 1.13 | viability ([12]; 0.04 µM): 0.965 | viability ([12]; 0.2 µM): 0.862 | viability ([12]; 1 µM): 0.817 | viability ([12]; 5 µM): 0.688 | viability ([13]; 0.008 µM): 1.03 | viability ([13]; 0.04 µM): 1.06 | viability ([13]; 0.2 µM): 0.999 | viability ([13]; 1 µM): 1.05 | viability ([13]; 5 µM): 1 | viability ([14]; 0.008 µM): 0.864 | viability ([14]; 0.04 µM): 0.563 | viability ([14]; 0.2 µM): 0.386 | viability ([14]; 1 µM): 0.321 | viability ([14]; 5 µM): 0.295 | viability ([15]; 0.008 µM): 0.897 | viability ([15]; 0.04 µM): 0.688 | viability ([15]; 0.2 µM): 0.617 | viability ([15]; 1 µM): 0.614 | viability ([15]; 5 µM): 0.556 | viability ([16]; 0.008 µM): 1.01 | viability ([16]; 0.04 µM): 0.945 | viability ([16]; 0.2 µM): 0.916 | viability ([16]; 1 µM): 0.943 | viability ([16]; 5 µM): 0.928 | viability ([17]; 0.008 µM): 1.03 | viability ([17]; 0.04 µM): 1.31 | viability ([17]; 0.2 µM): 0.912 | viability ([17]; 1 µM): 1.03 | viability ([17]; 5 µM): 0.867 | viability ([18]; 0.008 µM): 1.1 | viability ([18]; 0.04 µM): 1.07 | viability ([18]; 0.2 µM): 1.08 | viability ([18]; 1 µM): 1.05 | viability ([18]; 5 µM): 1.05 | viability ([19]; 0.008 µM): 0.943 | viability ([19]; 0.04 µM): 1.29 | viability ([19]; 0.2 µM): 1.22 | viability ([19]; 1 µM): 0.897 | viability ([19]; 5 µM): 1.12

CC(C)c1cc(C(=O)N2Cc3ccc(CN4CCN(C)CC4)cc3C2)c(O)cc1O [Onalespib]
viability ([1]; 0.0032 µM): 0.967 | viability ([1]; 0.016 µM): 1.24 | viability ([1]; 0.08 µM): 1.03 | viability ([1]; 0.4 µM): 1.22 | viability ([1]; 2 µM): 0.961 | viability ([2]; 0.0032 µM): 0.93 | viability ([2]; 0.016 µM): 1.11 | viability ([2]; 0.08 µM): 0.675 | viability ([2]; 0.4 µM): 0.33 | viability ([2]; 2 µM): 0.281 | viability ([3]; 0.0032 µM): 1.14 | viability ([3]; 0.016 µM): 0.967 | viability ([3]; 0.08 µM): 0.733 | viability ([3]; 0.4 µM): 0.304 | viability ([3]; 2 µM): 0.234 | viability ([4]; 0.0032 µM): 0.967 | viability ([4]; 0.016 µM): 1.15 | viability ([4]; 0.08 µM): 0.61 | viability ([4]; 0.4 µM): 0.169 | viability ([4]; 2 µM): 0.109 | viability ([5]; 0.0032 µM): 1.1 | viability ([5]; 0.016 µM): 1.06 | viability ([5]; 0.08 µM): 1.06 | viability ([5]; 0.4 µM): 0.989 | viability ([5]; 2 µM): 0.993 | viability ([6]; 0.0032 µM): 1.15 | viability ([6]; 0.016 µM): 0.852 | viability ([6]; 0.08 µM): 0.686 | viability ([6]; 0.4 µM): 0.568 | viability ([6]; 2 µM): 0.648 | viability ([7]; 0.0032 µM): 0.919 | viability ([7]; 0.016 µM): 1.02 | viability ([7]; 0.08 µM): 0.486 | viability ([7]; 0.4 µM): 0.422 | viability ([7]; 2 µM): 0.38 | viability ([8]; 0.0032 µM): 0.837 | viability ([8]; 0.016 µM): 0.691 | viability ([8]; 0.08 µM): 0.333 | viability ([8]; 0.4 µM): 0.292 | viability ([8]; 2 µM): 0.302 | viability ([9]; 0.0032 µM): 0.875 | viability ([9]; 0.016 µM): 1.35 | viability ([9]; 0.08 µM): 0.668 | viability ([9]; 0.4 µM): 0.69 | viability ([9]; 2 µM): 0.629 | viability ([10]; 0.0032 µM): 1.17 | viability ([10]; 0.016 µM): 0.872 | viability ([10]; 0.08 µM): 0.234 | viability ([10]; 0.4 µM): 0.235 | viability ([10]; 2 µM): 0.173 | viability ([11]; 0.0032 µM): 1.04 | viability ([11]; 0.016 µM): 1.44 | viability ([11]; 0.08 µM): 0.814 | viability ([11]; 0.4 µM): 0.497 | viability ([11]; 2 µM): 0.419 | viability ([12]; 0.0032 µM): 0.837 | viability ([12]; 0.016 µM): 1.12 | viability ([12]; 0.08 µM): 0.356 | viability ([12]; 0.4 µM): 0.345 | viability ([12]; 2 µM): 0.306 | viability ([13]; 0.0032 µM): 1.05 | viability ([13]; 0.016 µM): 1.08 | viability ([13]; 0.08 µM): 0.311 | viability ([13]; 0.4 µM): 0.0842 | viability ([13]; 2 µM): 0.0764 | viability ([14]; 0.0032 µM): 0.847 | viability ([14]; 0.016 µM): 0.379 | viability ([14]; 0.08 µM): 0.149 | viability ([14]; 0.4 µM): 0.169 | viability ([14]; 2 µM): 0.168 | viability ([15]; 0.0032 µM): 0.874 | viability ([15]; 0.016 µM): 0.716 | viability ([15]; 0.08 µM): 0.466 | viability ([15]; 0.4 µM): 0.523 | viability ([15]; 2 µM): 0.58 | viability ([16]; 0.0032 µM): 0.96 | viability ([16]; 0.016 µM): 1.01 | viability ([16]; 0.08 µM): 0.566 | viability ([16]; 0.4 µM): 0.434 | viability ([16]; 2 µM): 0.389 | viability ([17]; 0.0032 µM): 0.914 | viability ([17]; 0.016 µM): 0.992 | viability ([17]; 0.08 µM): 0.887 | viability ([17]; 0.4 µM): 0.962 | viability ([17]; 2 µM): 0.916 | viability ([18]; 0.0032 µM): 0.987 | viability ([18]; 0.016 µM): 1.1 | viability ([18]; 0.08 µM): 0.811 | viability ([18]; 0.4 µM): 0.585 | viability ([18]; 2 µM): 0.395 | viability ([19]; 0.0032 µM): 1.56 | viability ([19]; 0.016 µM): 1.32 | viability ([19]; 0.08 µM): 1.42 | viability ([19]; 0.4 µM): 0.756 | viability ([19]; 2 µM): 0.792
